How the values were obtained:
Mosquito [1] = test: Volatile agent on filter paper hung on the door of a room, mosquito invasion; assay type: in vivo; conditions: 1 mg on filter paper 20 cm×50 cm, volatilised at room temperature, hung on edge of door
Experimental: Compound 6 (2,3,5,6-tetrafluoro-4-methoxymethylbenzyl-1R, trans-(Z)-3-(3,3,3-trifluoro-1-prop ylene)-2,2-dimethylcyclopropane carboxylate, 1 mg) was dissolved in acetone (20 ml) to obtain a solution. The resulting solution was distributed on a filter paper (20 cm×50 cm) and air-dried to remove the acetone to obtain a volatile agent.

sanitary pests = test: Efficacy comparison of stereoisomers in controlling sanitary pests (experiments not detailed); conditions: for efficacy of isomer relative to other isomers: qualitative statement from applicant's study
[2] = tested on: female Culex pipiens pallens; test: Efficacy of pesticide incense coils on mosquito (GB13917.4-92, airtight cask); assay type: in vivo; conditions: for relative efficacy compared with dimefluthrin: incense coil 0.04 w/w %, from KT50 of table 1; for KT50: pesticide incense coil, 0.04 w/w % active ingredient, ignited and removed after 1 min, 20 female mosquitoes
Experimental: To a mixture of corn starch, carbon powder and wood flour (1:5:4, 99.96 parts by weight) was added water (120 parts by weight) and the resulting mixture was kneaded, and then dried to give a pesticide incense coil substrate (diameter: 12.0 cm; thickness: 4 mm; one pair of substrates' weight: 40 g).
On the other hand, a 0.4 w/v % solution of compound 1 in kerosene was prepared.
The above solution (4 ml) was uniformly sprayed on the incense coil substrate with a micro-syringe, and then kept for airing at room temperature for 3 hours to get of a pesticide incense coil I containing compound 1 according to the present invention (0.04 w/w %).
Similarly, a 0.4 w/v % solution of compound 2 in kerosene was prepared and a pesticide incense coil II containing compound 2 (0.04 w/w %) was be obtained.
A 0.4 w/v % solution of compound 3 in kerosene was prepared and a pesticide incense coil III containing compound 3 (0.04 w/w %) was obtained;
A 0.4 w/v % solution of compound 4 in kerosene was prepared and a pesticide incense coil IV containing compound 4 (0.04 w/w %) was obtained;
A 0.4 w/v % solution of compound 6 in kerosene was prepared and a pesticide incense coil V containing compound 6 (0.04 w/w %) was obtained;
A 0.4 w/v % solution of dimefluthrin in kerosene was prepared and a pesticide incense coil VI containing dimefluthrin (0.04 w/w %) was obtained.
The efficacy of pesticide coils I-Vi on mosquito were tested and compared according to GB13917.4-92). In particular, the test pests are female Culex pipiens pallens (2-3 days old, fasten). Firstly, 20 test mosquitoes were captured and put into airtight cask testing device with a mosquito-sucking tube, a section of pesticide incense coil to be tested was put on shelves, then ignited and removed after 1 min.

Mosquito [3] = test: Efficacy of aerosol pesticide on mosquito (GB13917.2-92); assay type: in vivo; conditions: 1 g sprayed
Experimental: (§1) Compound 1 (0.3 parts by weight) and kerosene (59.7 parts by weight) are mixed under heating to prepare a pesticide. The pesticide was placed in aerosol cans with a valve and then a mixture of propane and butane (40.0 parts by weight) was injected into tank through the valve at positive pressure to get an aerosol pesticide, which contains […] compound 1.
(§2) The efficacy of the aerosol pesticide on Mosquitoes, flies and blattella germanicas were tested according to GB13917.2-92. In particular, the test pests were placed into a tank. After all test pests restored normal activities, 1 g aerosol pesticide from aerosol cans was sprayed into the tank. Take the barrier plate away to make pests exposed to the aerosol pesticide and the number of killed pests was recorded at regular intervals, then all test pests were transferred to a clean cage after 20 mins, the number of dead pests was counted after 24 hours and the mortality of blattella germanicas at 72 h was determined.

Fly = test: Efficacy of aerosol pesticide on fly (GB13917.2-92); assay type: in vivo; conditions: 1 g sprayed
Experimental: as §1, §2

Blattella germanica = test: Efficacy of aerosol pesticide on blattella germanica (GB13917.2-92); assay type: in vivo; conditions: 1 g sprayed
Experimental: as §1, §2

[4] = aerosol pesticide from compound 1 (0.3 parts by weight)
[5] = aerosol pesticide, 20 min exposure, 24 h

Structure (SMILES): COCc1c(F)c(F)c(COC(=O)[C@@H]2[C@@H](/C=C\C(F)(F)F)C2(C)C)c(F)c1F (relative stereo) [Compound 6, 2,3,5,6-tetrafluoro-4-methoxymethylbenzyl-1R, trans-(Z)-3-(3,3,3-trifluoro-1-propenyl)-2,2-dimethyl cyclopropane carboxylate]
- mosquito invasion of a room (Mosquito [1]): None mosquito invaded
- efficacy of isomer relative to other isomers (sanitary pests): slightly better than the cis isomer
- relative efficacy compared with dimefluthrin [2]: more than twice that of dimefluthrin
- KT50 [2]: 3.1 min

Structure (SMILES): COCc1c(F)c(F)c(COC(=O)[C@@H]2C(/C=C\C(F)(F)F)C2(C)C)c(F)c1F (stereo partly drawn) [Compound 1, 2,3,5,6-tetrafluoro-4-methoxymethylbenzyl-1R-(Z)-3-(3,3,3-trifluoro-1-propenyl)-2,2-dimethylcyclopropane carboxylate]
- KT50 (mosquito/fly/cockroach) (Mosquito [3]; [4]): 4.8 min
- Mortality during 24 h (Mosquito [3]; [5]): 100%
- KT50 (mosquito/fly/cockroach) (Fly; [4]): 4.3 min
- Mortality during 24 h (Fly; [5]): 100%
- cross resistance compared to traditional pyrethroid products such as allethrin (sanitary pests; control of sanitary pests): doesn't have cross resistance
- efficacy of isomer relative to other isomers (sanitary pests): highly active isomer
- KT50 (mosquito/fly/cockroach) (Blattella germanica; [4]): 6.2 min
- Mortality (72 h) (Blattella germanica; aerosol pesticide, 20 min exposure, 72 h): 90%
- relative efficacy compared with dimefluthrin [2]: more than twice that of dimefluthrin
- KT50 [2]: 3.2 min

Structure (SMILES): COCc1c(F)c(F)c(COC(=O)[C@@H]2C(/C=C/C(F)(F)F)C2(C)C)c(F)c1F (stereo partly drawn) [Compound 2, 2,3,5,6-tetrafluoro-4-methoxymethylbenzyl-1R-(E)-3-(3,3,3-trifluoro-1-propenyl)-2,2-dimethylcyclopropane carboxylate]
- KT50 [2]: 5.2 min

Structure (SMILES): COCc1c(F)c(F)c(COC(=O)[C@H]2C(/C=C\C(F)(F)F)C2(C)C)c(F)c1F (stereo partly drawn) [Compound 3, 2,3,5,6-tetrafluoro-4-methoxymethylbenzyl-1S-(Z)-3-(3,3,3-trifluoro-1-propenyl)-2,2-dimethyl cyclopropane carboxylate]
- KT50 [2]: 5.1 min

Structure (SMILES): COCc1c(F)c(F)c(COC(=O)[C@H]2C(/C=C/C(F)(F)F)C2(C)C)c(F)c1F (stereo partly drawn) [Compound 4, 2,3,5,6-tetrafluoro-4-methoxymethylbenzyl-1S-(E)-3-(3,3,3-trifluoro-1-propenyl)-2,2-dimethylcyclopropane carboxylate]
- KT50 [2]: 8.2 min

Structure (SMILES): COCc1c(F)c(F)c(COC(=O)C2C(C=C(C)C)C2(C)C)c(F)c1F (stereo not drawn) [Dimefluthrin, dimefluthrin, reference compound]
- KT50 [2]: 7.6 min
